Measurements as given in patent publication US20220062240A1, “METHODS OF TREATING CANCER USING A CLK INHIBITOR” (BioSplice Therapeutics, Inc., priority 2018, published 2022).
Read-outs that look alike come from different tables or passages of the source.

Tests used:
Type in all cases: cell-based
[1] = test system: haematopoietic & lymphoid tumors (13 cell lines); experiment: CellTiter-Glo Viability Assay, haematopoietic & lymphoid tumors; conditions: Homo sapiens, inhibition of cancer cell proliferation
Protocol: (§1) Fifty-one human cancer cell lines (breast cancer (8 cell lines), colorectal cancer (6 cell lines), haematopoietic & lymphoid tumors (13 cell lines), liver cancer (3 cell lines), lung cancer (4 cell lines), ovarian cancer (4 cell lines), pancreatic cancer (8 cell lines), and prostate cancer (5 cell lines)) were tested to determine the effects of representative compounds of Formulas (I)-(XII) on cellular proliferation, as evaluated using the CellTiter-Glo® Viability Assay.
(§2) For the Cell Viability Assays, cells were plated at 300-3,000 cells/well in 384-well plates in their respective media containing 1% Penicillin-Streptomycin and incubated for four days at 37° C. and 5% CO2. Twenty-eight replicates of DMSO-treated cells served as controls and cells treated with compound were performed in duplicate.
(§3) After incubation, 10 μL of CellTiter-Glo® (Promega) was added to each well allowed to incubate for approximately 12 minutes. This reagent results in cell lysis and generation of a luminescent signal proportional to the amount of ATP present. The amount of ATP is directly proportional to the number of metabolically active, viable cells present in culture. The CellTiter-Glo® Assay generates a luminescent signal, produced by the luciferase reaction (Promega.com).
(§4) After incubation, the luminescence signal was read using an EnVision™ Multilabel Plate Reader (Perkin Elmer). Dose-response curves were generated and EC50 concentration values were calculated using Dotmatics' Studies Software (Bishops Stortford, UK).

[2] = test system: lung cancer (4 cell lines); experiment: CellTiter-Glo Viability Assay, lung cancer; conditions: Homo sapiens, inhibition of cancer cell proliferation
Protocol: as §1, §2, §3, §4

[3] = test system: prostate cancer (5 cell lines); experiment: CellTiter-Glo Viability Assay, prostate cancer; conditions: Homo sapiens
Protocol: as §1, §2, §3, §4

[4] = test system: colorectal cancer (6 cell lines); experiment: CellTiter-Glo Viability Assay, colorectal cancer; conditions: Homo sapiens, inhibition of cancer cell proliferation
Protocol: as §1, §2, §3, §4

[5] = test system: ovarian cancer (4 cell lines); experiment: CellTiter-Glo Viability Assay, ovarian cancer; conditions: Homo sapiens, inhibition of cancer cell proliferation
Protocol: as §1, §2, §3, §4

[6] = test system: pancreatic cancer (8 cell lines); experiment: CellTiter-Glo Viability Assay, pancreatic cancer; conditions: Homo sapiens, inhibition of cancer cell proliferation
Protocol: as §1, §2, §3, §4

[7] = test system: liver cancer (3 cell lines); experiment: CellTiter-Glo Viability Assay, liver cancer; conditions: Homo sapiens, inhibition of cancer cell proliferation
Protocol: as §1, §2, §3, §4

[8] = test system: all 50 cell lines; experiment: CellTiter-Glo Viability Assay, average across all cell lines; conditions: Homo sapiens; across all 50 cell lines; read-out: average EC50 for inhibition of cancer cell proliferation
Protocol: as §1, §2, §3, §4

[9] = test system: T47D; experiment: CellTiter-Glo Viability Assay, breast cancer; conditions: Homo sapiens, 96 h, breast cancer, four days, read-out: EC50
Protocol: as §1, §2, §3, §4

[10] = test system: MCF7; experiment: CellTiter-Glo Viability Assay, breast cancer; conditions: Homo sapiens, 96 h; MCF7, breast cancer, four days; read-out: EC50
Protocol: as §1, §2, §3, §4

[11] = test system: DU4475; experiment: CellTiter-Glo Viability Assay, breast cancer; conditions: Homo sapiens, DU-4475, 96 h; DU4475, breast cancer, four days; read-out: EC50
Protocol: as §1, §2, §3, §4

[12] = test system: CAMA1; experiment: CellTiter-Glo Viability Assay, breast cancer; conditions: Homo sapiens, CAMA-1, 96 h; CAMA1, breast cancer, four days; read-out: EC50
Protocol: as §1, §2, §3, §4

[13] = test system: HCC1599; experiment: CellTiter-Glo Viability Assay, breast cancer; conditions: Homo sapiens, 96 h; HCC1599, breast cancer, four days; read-out: EC50
Protocol: as §1, §2, §3, §4

[14] = test system: ZR-75-1; experiment: CellTiter-Glo Viability Assay, breast cancer; conditions: Homo sapiens, 96 h; ZR-75-1, breast cancer, four days; read-out: EC50
Protocol: as §1, §2, §3, §4

[15] = test system: BT-549; experiment: CellTiter-Glo Viability Assay, breast cancer; conditions: Homo sapiens, 96 h; BT-549, breast cancer, four days; read-out: EC50
Protocol: as §1, §2, §3, §4

[16] = test system: MDA-MB-231-Luc; experiment: CellTiter-Glo Viability Assay, breast cancer; conditions: Homo sapiens, 96 h; MDA-MB-231-Luc, breast cancer, four days; read-out: EC50
Protocol: as §1, §2, §3, §4

Cc1ncc(C(=O)Nc2cc3nc(-c4cnc(C)n4C)ccc3cn2)s1 [Compound 82]
EC50 ([1]; DND41, DND-41 cell line, read-out: Haematopoietic & Lymphoid tumors, EC50 (μM) DND-41): 0.288 µM | EC50 ([1]; MV4-11, MV-4-11 cell line, read-out: Haematopoietic & Lymphoid tumors, EC50 (μM) MV-4-11): 0.081 µM | EC50 ([1]; Rec1, REC-1 cell line, read-out: Haematopoietic & Lymphoid tumors, EC50 (μM) REC-1): 0.103 µM | EC50 ([1]; SU-DHL-4, SUDHL4 cell line, read-out: Haematopoietic & Lymphoid tumors, EC50 (μM) SUDHL4): 0.292 µM | EC50 ([1]; HL-60 cell line, read-out: Haematopoietic & Lymphoid tumors, EC50 (μM) HL-60): 0.221 µM | EC50 ([1]; JM1 cell line, read-out: Haematopoietic & Lymphoid tumors, EC50 (μM) JM1): 0.137 µM | EC50 ([1]; JURKAT, Clone E6-1 cell line, read-out: Haematopoietic & Lymphoid tumors, EC50 (μM) JURKAT, Clone E6-1): 0.169 µM | EC50 ([1]; JeKo-1 cell line, read-out: Haematopoietic & Lymphoid tumors, EC50 (μM) JeKo-1): 0.125 µM | EC50 ([1]; KASUMI-1 cell line, read-out: Haematopoietic & Lymphoid tumors, EC50 (μM) KASUMI-1): 0.163 µM | EC50 ([1]; Loucy cell line, read-out: Haematopoietic & Lymphoid tumors, EC50 (μM) Loucy): 0.206 µM | EC50 ([1]; MOLT-4 cell line, read-out: Haematopoietic & Lymphoid tumors, EC50 (μM) MOLT-4): 0.233 µM | EC50 ([1]; TF-1 cell line, read-out: Haematopoietic & Lymphoid tumors, EC50 (μM) TF-1): 0.316 µM | EC50 ([1]; TOLEDO cell line, read-out: Haematopoietic & Lymphoid tumors, EC50 (μM) TOLEDO): 0.117 µM | EC50 ([2]; A-427, A427 cell line, read-out: Lung cancer, EC50 (μM) A427): 0.236 µM | EC50 ([2]; HCC78, HCC-78 cell line, read-out: Lung cancer, EC50 (μM) HCC-78): 0.308 µM | EC50 ([2]; NCI-H460 cell line, read-out: Lung cancer, EC50 (μM) NCI-H460): 0.257 µM | EC50 ([2]; NCI-H522 cell line, read-out: Lung cancer, EC50 (μM) NCI-H522): 0.19 µM | EC50 ([3]; DU-145, read-out: Prostate cancer EC50 Du-145): 360 nM | EC50 ([3]; PC-3, PC3 cell line, inhibition of cancer cell proliferation, read-out: Prostate cancer EC50 PC3): 287 nM | EC50 ([3]; 22Rv1 cell line, inhibition of cancer cell proliferation, read-out: Prostate cancer EC50 22Rv1): 218 nM | EC50 ([3]; LNCap clone FGC cell line, inhibition of cancer cell proliferation, read-out: Prostate cancer EC50 LNCap clone FGC): 293 nM | EC50 ([3]; VCaP (Sigma) cell line, inhibition of cancer cell proliferation, read-out: Prostate cancer EC50 VCaP (Sigma)): 770 nM | EC50 ([4]; HCT-116, HCT116 cell line, read-out: Colorectal cancer, EC50 (μM) HCT116): 0.168 µM | EC50 ([4]; HT-29, HT29 cell line, read-out: Colorectal cancer, EC50 (μM) HT29): 0.252 µM | EC50 ([4]; SW-620, SW620 cell line, read-out: Colorectal cancer, EC50 (μM) SW620): 0.143 µM | EC50 ([4]; DLD-1 cell line, read-out: Colorectal cancer, EC50 (μM) DLD-1): 0.193 µM | EC50 ([4]; SW48 cell line, read-out: Colorectal cancer, EC50 (μM) SW48): 0.122 µM | EC50 ([4]; SW480 cell line, read-out: Colorectal cancer, EC50 (μM) SW480): 0.339 µM | EC50 ([5]; PA-1, PA1 cell line, read-out: Ovarian cancer, EC50 (μM) PA1): 0.175 µM | EC50 ([5]; TOV112D, TOV-112D cell line, read-out: Ovarian cancer, EC50 (μM) TOV-112D): 0.147 µM | EC50 ([5]; OV-90 cell line, read-out: Ovarian cancer, EC50 (μM) OV-90): 0.628 µM | EC50 ([5]; OVCAR-3 cell line, read-out: Ovarian cancer, EC50 (μM) OVCAR-3): 0.073 µM | EC50 ([6]; BXPC-3, BxPC3 cell line, read-out: Pancreatic cancer, EC50 BxPC3): 199 nM | EC50 ([6]; CAPAN-1, Capan1 cell line, read-out: Pancreatic cancer, EC50 Capan1): 269 nM | EC50 ([6]; Capan-2, Capan2 cell line, read-out: Pancreatic cancer, EC50 Capan2): 579 nM | EC50 ([6]; MIA PaCa-2 cell line, read-out: Pancreatic cancer, EC50 MIA PaCa-2): 159 nM | EC50 ([6]; PANC 05.04 cell line, read-out: Pancreatic cancer, EC50 PANC 05.04): 279 nM | EC50 ([6]; PANC-1 cell line, read-out: Pancreatic cancer, EC50 PANC-1): 514 nM | EC50 ([6]; UPAFII cell line, read-out: Pancreatic cancer, EC50 UPAFII): 169 nM | EC50 ([7]; SNU-398, SNU398 cell line, read-out: Liver cancer, EC50 SNU398): 123 nM | EC50 ([7]; HEPG2 cell line, read-out: Liver cancer, EC50 HEPG2): 485 nM | EC50 ([7]; PLC/PRF/5 cell line, read-out: Liver cancer, EC50 PLC/PRF/5): 613 nM | EC50 [8]: 282 nM | EC50 [9]: 451 nM | EC50 [10]: 942 nM | EC50 [11]: 148 nM | EC50 [12]: 244 nM | EC50 [13]: 154 nM | EC50 [14]: 440 nM | EC50 [15]: 277 nM | EC50 [16]: 462 nM
